# PMC8301423, “The Effects of Temperature and Pressure on Protein-Ligand Binding in the Presence of Mars-Relevant Salts” (Biology, 2021)
# Target: T1, bovine serum albumin (BSA) (Bos taurus, UniProt P02769)
# T1 construct: BSA, molecular weight of 66 kDa, 583 residues; purchased Sigma Aldrich Chemicals (Taufkirchen, Germany)
# Assay: Steady-state fluorescence titration of ANS with BSA at ambient pressure (binding isotherms)
# Settings: for Kd: 1 bar, 10 mM Tris-HCl pH 7.4
# Excerpt: The extent of complex formation between ANS and BSA was followed by means of steady-state fluorescence spectroscopy using a K2 fluorometer from ISS, Inc. (Champaign, IL, USA). The binding isotherms were obtained by recording ANS emission spectra by exciting the solutions at 350 nm and recording the emission intensities in the range 400–550 nm. The width slits of the excitation and emission monochromators were both set to 8 nm. Briefly, a series of solutions with a fixed concentration of ANS at ~5 µM were prepared, and the concentration of BSA was varied between 0 and ~40 µM. Then estimation of the binding constants (Kb) was performed by using a plot of ΔF = F − F0 (where F is the fluorescence intensity of ANS at the maximum in the presence of BSA, and F0 is the intensity of ANS in the absence of BSA) as a function of total BSA concentration and fitting the experimental data according to an equivalent and independent binding sites model or to two classes of non-equivalent and independent binding-site models, as described in detail in Reference.
# Once the stoichiometries of the complex in the presence of the salts and at the three different temperatures are known, it is possible to estimate the binding constants, Kb, performing titration experiments by means of steady-state fluorescence spectroscopy. In these experiments, a solution of ANS was titrated with a BSA solution. The ANS is characterized by a very low quantum yield when it is free in solution [21]. Instead, when the aromatic ligand is bound to the protein’s hydrophobic pockets, a strong increase of the fluorescence intensity is observed. Thus, the extent of binding can be readily determined by following the fluorescence increase of ANS. The subsequent data analysis was performed according to the stoichiometries inferred by the Job’s plot experiments.
# T1 sequence (P02769 25-607): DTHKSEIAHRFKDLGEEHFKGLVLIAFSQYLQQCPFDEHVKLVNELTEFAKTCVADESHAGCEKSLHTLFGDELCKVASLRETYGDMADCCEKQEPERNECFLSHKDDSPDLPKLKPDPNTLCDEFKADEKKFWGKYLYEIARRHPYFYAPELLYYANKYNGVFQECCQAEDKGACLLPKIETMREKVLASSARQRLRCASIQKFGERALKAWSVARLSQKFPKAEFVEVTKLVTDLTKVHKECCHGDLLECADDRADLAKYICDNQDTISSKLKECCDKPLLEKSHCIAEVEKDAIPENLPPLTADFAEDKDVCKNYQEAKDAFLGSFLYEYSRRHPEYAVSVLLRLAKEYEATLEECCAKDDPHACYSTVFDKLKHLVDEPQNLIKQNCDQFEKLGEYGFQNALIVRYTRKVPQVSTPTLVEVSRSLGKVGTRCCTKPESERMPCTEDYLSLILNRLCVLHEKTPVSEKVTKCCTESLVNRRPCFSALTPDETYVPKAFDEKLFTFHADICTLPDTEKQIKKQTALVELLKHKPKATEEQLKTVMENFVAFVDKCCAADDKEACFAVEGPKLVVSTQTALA
structure (smiles),measurement,setting,value
"O=S(=O)(O)c1cccc2cccc(Nc3ccccc3)c12 [ANS, 8-anilinonaphthalene-1-sulfonic acid]",Decrease of Kb on decreasing the temperature from 25 to 15 °C,"250 mM MgCl2, 1 bar",~ 90%
same,Kd,"Binding constant Kb1, 250 mM Mg(ClO4)2, 5 °C",5260 nM
same,Kd,"Binding constant Kb1, 250 mM Mg(ClO4)2, 15 °C",6670 nM
same,Kd,"Binding constant Kb1, 250 mM Mg(ClO4)2, 25 °C",1690 nM
same,Kd,"Binding constant Kb1, 250 mM MgCl2, 5 °C",1000 ± 100 nM
same,Kd,"Binding constant Kb1, 250 mM MgCl2, 15 °C",2780 nM
same,Kd,"Binding constant Kb1, 250 mM MgCl2, 25 °C",204 nM
same,Kd,"Binding constant Kb1, 250 mM MgSO4, 5 °C",1610 nM
same,Kd,"Binding constant Kb1, 250 mM MgSO4, 15 °C",2560 nM
same,Kd,"Binding constant Kb1, 250 mM MgSO4, 25 °C",345 nM
same,Kd,"Binding constant Kb2, 250 mM Mg(ClO4)2, 5 °C",5260 nM
same,Kd,"Binding constant Kb2, 250 mM Mg(ClO4)2, 15 °C",7690 nM
same,Kd,"Binding constant Kb2, 250 mM Mg(ClO4)2, 25 °C",833 nM
